Common to all, as to format: cell-based
The target in one assay is T1, KRAS G12D (Homo sapiens, UniProt P01116, G12D).
T1 construct: AsPc-1-KRAS (G12D)-HiBit-KI cell (Pharmaron); host or cells: AsPc-1-KRAS (G12D)-HiBit-KI cells (HiBiT knock-in at the endogenous KRAS locus)
As to the kind of experiment: KRAS G12D HiBit assay. The conditions noted are these: AsPc-1-KRAS (G12D)-HiBit-KI cell, compound treatment for 24 hours, absolute DC50. Summed up:
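HiBiT luminescence, detected by adding lytic buffer, substrate and LgBiT protein, served as the KRAS G12D read-out. Compounds, serially diluted 3-fold over 10 points from 0.3 mM DMSO stock, were on cells for 24 h; percent inhibition normalized to cells given 0.1% DMSO only.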
For orientation: With HiBiT, luminescence reflects the tagged protein that the partner subunit can reach.

A further assay concerns the target T2, KRAS G12V (Homo sapiens, UniProt P01116, G12V).
T2 construct: SW620-KRAS (G12V)-HiBit-KI cell (Pharmaron); host or cells: SW620-KRAS (G12V)-HiBit-KI cells (HiBiT knock-in at the endogenous KRAS locus)
As to the kind of experiment: KRAS G12V HiBit assay. The note with it: SW620-KRAS (G12V)-HiBit-KI cells, compound treatment for 24 hours. The essentials: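 Luminescence from lytic Nano-Glo HiBiT detection with LgBiT read KRAS G12V levels after 24 h compound exposure. Dilutions were 10-point, 3-fold, from a 0.3 mM DMSO stock. Degradation activity was normalised to cells given 0.1% DMSO alone.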

In a further assay the target is T3, KRAS (Homo sapiens, UniProt P01116).
T3 construct: endogenous in cells; host or cells: KE39 (KRAS amplified) cells
T3 sequence (P01116 1-188 isoform P01116-2): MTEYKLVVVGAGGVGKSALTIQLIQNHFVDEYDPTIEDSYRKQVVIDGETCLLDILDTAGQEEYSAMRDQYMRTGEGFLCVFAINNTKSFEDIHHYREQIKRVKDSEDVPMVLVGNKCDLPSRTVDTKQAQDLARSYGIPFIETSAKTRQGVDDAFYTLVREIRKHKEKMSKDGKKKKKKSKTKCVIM
As to the kind of experiment: KRASamp MSD assay. The note with it: KE39 (KRAS amplified) cells, treated with test compounds for 24 hr, MSD readout of KRAS degradation. The essentials: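 Degradation DC50 derived by curve fitting, with KRAS levels quantified by MSD electrochemiluminescence (capture/detection antibodies, recombinant WT KRAS standard). Lysates prepared from KE39 cells (KRAS amplified) exposed to test compounds for 24 hr.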

T2 sequence (P01116 1-188 isoform P01116-2 G12V): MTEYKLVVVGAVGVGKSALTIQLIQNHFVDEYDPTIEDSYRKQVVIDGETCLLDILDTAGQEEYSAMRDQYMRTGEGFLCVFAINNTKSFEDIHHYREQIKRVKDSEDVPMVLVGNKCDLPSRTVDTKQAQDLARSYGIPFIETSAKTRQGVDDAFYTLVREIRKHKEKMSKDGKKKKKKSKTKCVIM
T1 sequence (P01116 1-188 isoform P01116-2 G12D): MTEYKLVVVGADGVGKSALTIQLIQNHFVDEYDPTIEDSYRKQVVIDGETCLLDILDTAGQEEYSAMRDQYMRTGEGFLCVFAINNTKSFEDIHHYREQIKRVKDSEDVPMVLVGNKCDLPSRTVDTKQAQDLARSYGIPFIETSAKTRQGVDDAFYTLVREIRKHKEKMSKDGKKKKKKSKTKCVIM

Turning to `CCc1c(F)ccc2cc(O)cc(-c3ncc4c(N5CCC[C@@](C)(O)C5)nc(OC[C@@]56CCCN5[C@H](COC(=O)N5CC7(CC(CN8CCC(c9ccc%10c(c9)n(C)c(=O)n%10C9CCC(=O)NC9=O)CC8)C7)C5)CC6)nc4c3F)c12` (stereo partly drawn) [Compound 396, ((3S,7aS)-7a-(((7-(8-ethyl-7-fluoro-3-hydroxynaphthalen-1-yl)-8-fluoro-4-((R)-3-hydroxy-3-methylpiperidin-1-yl)pyrido[4,3-d]pyrimidin-2-yl)oxy)methyl)hexahydro-1H-pyrrolizin-3-yl)methyl 6-((4-(1-(2,6-dioxopiperidin-3-yl)-3-methyl-2-oxo-2,3-dihydro-1H-benzo[d]imidazol-5-yl)piperidin-1-yl)methyl)-2-azaspiro[3.3]heptane-2-carboxylate], the DC50 was less than 100 nM on KRAS G12D (class symbols), less than 10 nM on KRAS G12V (class symbols) and less than 1 nM at KRAS.
For `Cn1c(=O)n(C2CCC(=O)NC2=O)c2ccc(C3CCN(C4CC5(CCN(C(=O)OC[C@@H]6CC[C@]7(COc8nc(N9CCC[C@@](C)(O)C9)c9cnc(-c%10cc(O)cc%11ccc(F)cc%10%11)cc9n8)CCCN67)CC5)C4)CC3)cc21` (stereo partly drawn) [Compound 474, ((3S,7aS)-7a-(((7-(7-fluoro-3-hydroxynaphthalen-1-yl)-4-((R)-3-hydroxy-3-methylpiperidin-1-yl)pyrido[4,3-d]pyrimidin-2-yl)oxy)methyl)hexahydro-1H-pyrrolizin-3-yl)methyl 2-(4-(1-(2,6-dioxopiperidin-3-yl)-3-methyl-2-oxo-2,3-dihydro-1H-benzo[d]imidazol-5-yl)piperidin-1-yl)-7-azaspiro[3.5]nonane-7-carboxylate], the results for the DC50 at KRAS G12D (class symbols), at KRAS G12V (class symbols) and on KRAS were less than 100 nM, less than 10 nM and less than 1 nM, respectively.
Take `C#Cc1c(F)ccc2cc(O)cc(-c3ncc4c(N5CCC[C@@](C)(O)C5)nc(OC[C@@]56CCCN5[C@H](COC(=O)N5CCCC7(CN(CC8CCN(c9ccc%10c(c9)n(C)c(=O)n%10C9CCC(=O)NC9=O)CC8)C7)C5)CC6)nc4c3F)c12` (stereo partly drawn) [Compound 329, ((3S,7aS)-7a-(((7-(8-ethynyl-7-fluoro-3-hydroxynaphthalen-1-yl)-8-fluoro-4-((R)-3-hydroxy-3-methylpiperidin-1-yl)pyrido[4,3-d]pyrimidin-2-yl)oxy)methyl)hexahydro-1H-pyrrolizin-3-yl)methyl 2-((1-(1-(2,6-dioxopiperidin-3-yl)-3-methyl-2-oxo-2,3-dihydro-1H-benzo[d]imidazol-5-yl)piperidin-4-yl)methyl)-2,6-diazaspiro[3.5]nonane-6-carboxylate]: the results for the DC50 on KRAS G12D (numeric bounds given in place of class symbols), at KRAS G12V (class symbols) and at KRAS were more than 100 nM, more than 100 nM and not below 10 nM, respectively.
Consider `CCc1c(F)ccc2cc(O)cc(-c3ncc4c(N5CCC[C@@H](N)C5)nc(OC[C@@]56CCCN5[C@H](COC(=O)N5CCC7(CC5)CC(N5CCC(c8ccc9c(c8)n(C)c(=O)n9C8CCC(=O)NC8=O)CC5)C7)CC6)nc4c3F)c12` (stereo partly drawn) [Compound 476, ((3S,7aS)-7a-(((4-((R)-3-aminopiperidin-1-yl)-7-(8-ethyl-7-fluoro-3-hydroxynaphthalen-1-yl)-8-fluoropyrido[4,3-d]pyrimidin-2-yl)oxy)methyl)hexahydro-1H-pyrrolizin-3-yl)methyl 2-(4-(1-(2,6-dioxopiperidin-3-yl)-3-methyl-2-oxo-2,3-dihydro-1H-benzo[d]imidazol-5-yl)piperidin-1-yl)-7-azaspiro[3.5]nonane-7-carboxylate], for which the figures for the DC50 at KRAS G12D (class symbols), at KRAS G12V (class symbols) and at KRAS were less than 100 nM, less than 10 nM and 1 to 10 nM, respectively.
For the compound `CCc1c(F)ccc2cc(O)cc(-c3ncc4c(N5CCC[C@@](C)(O)C5)nc(OCC56CCCN5[C@@H](COC(=O)N5CCC(CN7CCC(c8ccc9c(c8)n(C)c(=O)n9C8CCC(=O)NC8=O)CC7)CC5)CC6)nc4c3F)c12` (stereo partly drawn) [Compound 121, (cis-7a-(((7-(8-Ethyl-7-fluoro-3-hydroxynaphthalen-1-yl)-8-fluoro-4-((R)-3-hydroxy-3-methylpiperidin-1-yl)pyrido[4,3-d]pyrimidin-2-yl)oxy)methyl)hexahydro-1H-pyrrolizin-3-yl)methyl 4-((4-(1-(2,6-dioxopiperidin-3-yl)-3-methyl-2-oxo-2,3-dihydro-1H-benzo[d]imidazol-5-yl)piperidin-1-yl)methyl) piperidine-1-carboxylate], the DC50 was less than 100 nM at KRAS G12D (class symbols), less than 10 nM on KRAS G12V (class symbols) and 1 to 10 nM at KRAS.
As for `CCc1c(F)ccc2cc(O)cc(-c3ncc4c(N5CCC[C@](C)(N)C5)nc(OC[C@@]56CCCN5[C@H](COC(=O)N5CCC7(CC5)CC(N5CCC(c8ccc9c(c8)n(C)c(=O)n9C8CCC(=O)NC8=O)CC5)C7)CC6)nc4c3F)c12` (stereo partly drawn) [Compound 478, ((3S,7aS)-7a-(((4-((S)-3-amino-3-methylpiperidin-1-yl)-7-(8-ethyl-7-fluoro-3-hydroxynaphthalen-1-yl)-8-fluoropyrido[4,3-d]pyrimidin-2-yl)oxy)methyl)hexahydro-1H-pyrrolizin-3-yl)methyl 2-(4-(1-(2,6-dioxopiperidin-3-yl)-3-methyl-2-oxo-2,3-dihydro-1H-benzo[d]imidazol-5-yl)piperidin-1-yl)-7-azaspiro[3.5]nonane-7-carboxylate], the DC50 on KRAS G12D (class symbols) is less than 100 nM; on KRAS G12V (class symbols) it was less than 10 nM; on KRAS, less than 1 nM.
In the case of `CCc1c(F)ccc2cc(O)cc(-c3ncc4c(N5CCC[C@@](C)(O)C5)nc(OC[C@@]56CCCN5C(CN5CCC(Cc7ccc8c(c7)n(C)c(=O)n8C7CCC(=O)NC7=O)CC5)CC6)nc4c3F)c12` (stereo partly drawn) [Compound 383, 3-(5-((1-(((7aS)-7a-(((7-(8-ethyl-7-fluoro-3-hydroxynaphthalen-1-yl)-8-fluoro-4-((R)-3-hydroxy-3-methylpiperidin-1-yl)pyrido[4,3-d]pyrimidin-2-yl)oxy)methyl)hexahydro-1H-pyrrolizin-3-yl)methyl)piperidin-4-yl)methyl)-3-methyl-2-oxo-2,3-dihydro-1H-benzo[d]imidazol-1-yl)piperidine-2,6-dione], the DC50 is less than 100 nM at KRAS G12D (class symbols), more than 91.5 nM at KRAS G12V (numeric bounds) and not below 10 nM at KRAS.
As to `CCc1c(F)ccc2cc(O)cc(-c3ncc4c(N5CCC[C@@](C)(O)C5)nc(OC[C@@]56CCCN5[C@H](CN5CCC(CN7CCC(Cc8ccc9c(c8)n(C)c(=O)n9C8CCC(=O)NC8=O)CC7)CC5)CC6)nc4c3F)c12` (stereo partly drawn) [Compound 436, 3-(5-((1-((1-(((3S,7aS)-7a-(((7-(8-ethyl-7-fluoro-3-hydroxynaphthalen-1-yl)-8-fluoro-4-((R)-3-hydroxy-3-methylpiperidin-1-yl)pyrido[4,3-d]pyrimidin-2-yl)oxy)methyl)hexahydro-1H-pyrrolizin-3-yl)methyl)piperidin-4-yl)methyl)piperidin-4-yl)methyl)-3-methyl-2-oxo-2,3-dihydro-1H-benzo[d]imidazol-1-yl)piperidine-2,6-dione], the DC50 at KRAS G12D (class symbols) is less than 100 nM; on KRAS G12V (class symbols) it was 10 to 100 nM; at KRAS, 1 to 10 nM.
For `CCc1c(F)ccc2cc(O)cc(-c3ncc4c(N5CCC[C@@](C)(O)C5)nc(OC[C@@]56CCCN5[C@H](COC(=O)N5CCC7(CC5)CC(CN5CCC(c8ccc9c(c8)n(C)c(=O)n9C8CCC(=O)NC8=O)CC5)C7)CC6)nc4c3F)c12` (stereo partly drawn) [Compound 417, ((3S,7aS)-7a-(((7-(8-ethyl-7-fluoro-3-hydroxynaphthalen-1-yl)-8-fluoro-4-((R)-3-hydroxy-3-methylpiperidin-1-yl)pyrido[4,3-d]pyrimidin-2-yl)oxy)methyl)hexahydro-1H-pyrrolizin-3-yl)methyl 2-((4-(1-(2,6-dioxopiperidin-3-yl)-3-methyl-2-oxo-2,3-dihydro-1H-benzo[d]imidazol-5-yl)piperidin-1-yl)methyl)-7-azaspiro[3.5]nonane-7-carboxylate] the same measures were less than 100 nM, less than 10 nM and less than 1 nM.
Regarding `CCc1c(F)ccc2cc(O)cc(-c3ncc4c(N5CCC[C@@](C)(O)C5)nc(OC[C@]56CCCN5[C@H](CN5CCC(OCCCc7ccc8c(c7)n(C)c(=O)n8C7CCC(=O)NC7=O)CC5)CC6)nc4c3F)c12` (stereo partly drawn) [Compound 444, 3-(5-(3-((1-(((3S,7aR)-7a-(((7-(8-Ethyl-7-fluoro-3-hydroxynaphthalen-1-yl)-8-fluoro-4-((R)-3-hydroxy-3-methylpiperidin-1-yl)pyrido[4,3-d]pyrimidin-2-yl)oxy)methyl)hexahydro-1H-pyrrolizin-3-yl)methyl)piperidin-4-yl)oxy)propyl)-3-methyl-2-oxo-2,3-dihydro-1H-benzo[d]imidazol-1-yl) piperidine-2,6-dione], the DC50 was less than 100 nM on KRAS G12D (class symbols), more than 78.5 nM on KRAS G12V (numeric bounds) and 1 to 10 nM on KRAS.

The record behind these values is patent publication US12599672B2, “KRAS proteolysis targeting chimeras” (PAQ Therapeutics Inc., priority 2023, dated 2026).
